Test results reported in US11384060B2, “Amide compounds and use thereof” (ALPHALA CO., LTD., priority 2017, dated 2022).
Like-named read-outs stand apart in the source and are kept apart here.

Columns and labels:
[1] = target: T1, glucagon receptor (GCGR) overexpressed CHO-K1 cells or human primary hepatocytes (Homo sapiens, UniProt P47871); experiment: Glucagon cAMP inhibition assay (Cisbio cAMP Dynamic 2 HTRF); type: cell-based
T1 construct: expressed in transfected cells; host or cells: GCGR overexpressed CHO-K1 cells or human primary hepatocytes (endogenous receptor)
T1 sequence (P47871 26-477): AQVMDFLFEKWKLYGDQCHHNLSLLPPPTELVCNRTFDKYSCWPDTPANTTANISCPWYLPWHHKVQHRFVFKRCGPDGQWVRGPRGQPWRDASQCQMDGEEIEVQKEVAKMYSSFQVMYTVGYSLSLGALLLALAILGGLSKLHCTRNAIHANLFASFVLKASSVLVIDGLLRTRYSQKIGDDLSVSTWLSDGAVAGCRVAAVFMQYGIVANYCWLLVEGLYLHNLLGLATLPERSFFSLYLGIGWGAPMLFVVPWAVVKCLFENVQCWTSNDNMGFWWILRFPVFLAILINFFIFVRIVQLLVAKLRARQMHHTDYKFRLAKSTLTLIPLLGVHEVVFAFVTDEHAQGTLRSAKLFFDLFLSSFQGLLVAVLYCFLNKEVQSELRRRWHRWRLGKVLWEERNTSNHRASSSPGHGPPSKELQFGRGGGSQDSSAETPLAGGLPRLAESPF
Method in brief: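 GCGR-overexpressing CHO-K1 cells or human primary hepatocytes in HBSS with 0.1% BSA and 800 nM IBMX, pre-incubated 30 min with serially diluted compounds (1% DMSO final), then stimulated 30 min at room temperature with glucagon at its EC50. cAMP measured by HTRF after 60 min lysis; IC50 by non-linear regression.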

glucagon receptor (GCGR) = target: T2, glucagon receptor (GCGR) (Homo sapiens, UniProt P47871); experiment: I125-glucagon binding assay (competition, GCGR membrane fractions)
T2 construct: expressed in transfected cells; host or cells: CHO-K1 cells overexpressing GCGR (membrane fractions)
T2 sequence (P47871 26-477): as above
Method in brief: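 Membranes from CHO-K1 cells overexpressing GCGR, 7.5 μg/well in 50 mM Tris pH 7.4 with 0.5% BSA, were preincubated 5 min with serially diluted compounds, then given 0.0625 nM final I^125-glucagon for 30 min at 25° C. Bound label was filtered on PEI-coated GF/B and counted; IC50 by non-linear regression.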

| Structure (SMILES) | IC50 cAMP [1] [nM] | IC50 (glucagon receptor (GCGR)) [nM] | IC50 cAMP ([1]; inhibition of glucagon (EC50 concentration) induced cAMP production) [nM] | IC50 (glucagon receptor (GCGR); competition with I125-glucagon 0.0625 nM, membrane fractions of GCGR overexpressed CHO-K1 cells) [nM] |
| --- | --- | --- | --- | --- |
| CC(C)COC[C@@H](Cc1ccc(-c2ccc(C(C)(C)C)cc2)cc1)Nc1ccc(C(=O)NCCC(=O)O)cc1 [Compound 19-17, (R)-3-(4-((1-(4′-(tert-butyl)-[1,1′-biphenyl]-4-yl)-3-isobutoxypropan-2-yl)amino)benzamido)propanoic Acid] | 1225 | 1040 | – | – |
| CC(C)COC[C@@H](Cc1ccc(-c2ccc(C(F)(F)F)cc2)cc1)Nc1ccc(C(=O)NCCC(=O)O)cc1 [Compound 19-18] | 916.8 | 688 | – | – |
| CC(C)COC[C@@H](Cc1ccc(-c2ccc(OC(F)(F)F)cc2)cc1)Nc1ccc(C(=O)NCCC(=O)O)cc1 [Compound 19-19, (R)-3-(4-((1-isobutoxy-3-(4′-(trifluoromethoxy)-[1,1′-biphenyl]-4-yl)propan-2-yl)amino)benzamido)propanoic Acid] | 582.5 | 317 | – | – |
| CC(C)COC[C@@H](Cc1ccc(-c2ccc(Cl)cc2Cl)cc1)Nc1ccc(C(=O)NCCC(=O)O)cc1 [Compound 19-20, (R)-3-(4-((1-(2′,4′-dichloro-[1,1′-biphenyl]-4-yl)-3-isobutoxypropan-2-yl)amino)benzamido)propanoic Acid] | 822.4 | 1150 | – | – |
| CC(C)COC[C@@H](Cc1ccc(-c2cc3ccccc3o2)cc1)Nc1ccc(C(=O)NCCC(=O)O)cc1 [Compound 19-21, (R)-3-(4-((1-(4-(benzofuran-2-yl)phenyl)-3-isobutoxypropan-2-yl)amino)benzamido)propanoic Acid] | 437.3 | 269 | – | – |
| CCCOC[C@H](Cc1ccc(-c2ccc(C(F)(F)F)cc2)cc1)Nc1ccc(C(=O)NCCC(=O)O)cc1 [Compound 19-22, (S)-3-(4-((1-propoxy-3-(4′-(trifluoromethyl)-[1,1′-biphenyl]-4-yl)propan-2-yl)amino)benzamido)propanoic Acid] | 986.5 | 745 | – | – |
| CCCOC[C@H](Cc1ccc(-c2cccc(C(F)(F)F)c2)cc1)Nc1ccc(C(=O)NCCC(=O)O)cc1 [Compound 19-23, (S)-3-(4-((1-propoxy-3-(3′-(trifluoromethyl)-[1,1′-biphenyl]-4-yl)propan-2-yl)amino)benzamido)propanoic Acid] | 1126 | 1310 | – | – |
| CCCOC[C@H](Cc1ccc(-c2ccc(OC(F)(F)F)cc2)cc1)Nc1ccc(C(=O)NCCC(=O)O)cc1 [Compound 19-24, (S)-3-(4-((1-propoxy-3-(4′-(trifluoromethoxy)-[1,1′-biphenyl]-4-yl)propan-2-yl)amino)benzamido)propanoic Acid] | 630.4 | 512 | – | – |
| CCCOC[C@H](Cc1ccc(-c2cccc(OC(F)(F)F)c2)cc1)Nc1ccc(C(=O)NCCC(=O)O)cc1 [Compound 19-25, (S)-3-(4-((1-propoxy-3-(3′-(trifluoromethoxy)-[1,1′-biphenyl]-4-yl)propan-2-yl)amino)benzamido)propanoic Acid] | 1513 | 1280 | – | – |
| CCCOC[C@H](Cc1ccc(-c2cc3ccccc3o2)cc1)Nc1ccc(C(=O)NCCC(=O)O)cc1 [Compound 19-26, (S)-3-(4-((1-(4-(benzofuran-2-yl)phenyl)-3-propoxypropan-2-yl)amino)benzamido)propanoic Acid] | 902.8 | 592 | – | – |
| CCCOC[C@H](Cc1ccc(-c2cc3ccccc3[nH]2)cc1)Nc1ccc(C(=O)NCCC(=O)O)cc1 [Compound 19-27, (S)-3-(4-((1-(4-(1H-indol-2-yl)phenyl)-3-propoxypropan-2-yl)amino)benzamido)propanoic Acid] | 4952 | 455 | – | – |
| CC(C)COC[C@H](Cc1ccc(-c2cccc(C(F)(F)F)c2)cc1)Nc1ccc(C(=O)NCCC(=O)O)cc1 [Compound 19-28, (S)-3-(4-((1-isobutoxy-3-(3′-(trifluoromethyl)-[1,1′-biphenyl]-4-yl)propan-2-yl)amino)benzamido)propanoic Acid] | 726 | 872 | – | – |
| CC(C)COC[C@H](Cc1ccc(-c2ccccc2C(F)(F)F)cc1)Nc1ccc(C(=O)NCCC(=O)O)cc1 [Compound 19-29, (S)-3-(4-((1-isobutoxy-3-(2′-(trifluoromethyl)-[1,1′-biphenyl]-4-yl)propan-2-yl)amino)benzamido)propanoic Acid] | 871 | 2120 | – | – |
| CC(C)COC[C@H](Cc1ccc(-c2cccc(OC(F)(F)F)c2)cc1)Nc1ccc(C(=O)NCCC(=O)O)cc1 [Compound 19-30, (S)-3-(4-((1-isobutoxy-3-(3′-(trifluoromethoxy)-[1,1′-biphenyl]-4-yl)propan-2-yl)amino)benzamido)propanoic Acid] | 1104 | 548 | – | – |
| CC(C)COC[C@H](Cc1ccc(-c2cc(F)c(F)c(F)c2)cc1)Nc1ccc(C(=O)NCCC(=O)O)cc1 [Compound 19-31, (S)-3-(4-((1-isobutoxy-3-(3′,4′,5′-trifluoro-[1,1′-biphenyl]-4-yl)propan-2-yl)amino)benzamido)propanoic Acid] | 1341 | 500 | – | – |
| CC(C)COC[C@H](Cc1ccc(-c2cc3ccccc3o2)cc1)Nc1ccc(C(=O)NCCC(=O)O)cc1 [Compound 19-32, (S)-3-(4-((1-(4-(benzofuran-2-yl)phenyl)-3-isobutoxypropan-2-yl)amino)benzamido)propanoic Acid] | 1017 | 483 | – | – |
| CC(C)COC[C@H](Cc1ccc(-c2ccc(OC(F)(F)F)cc2)cc1)Nc1ccc(C(=O)NCCC(=O)O)cc1 [Compound 19-33, (S)-3-(4-((1-isobutoxy-3-(4′-(trifluoromethoxy)-[1,1′-biphenyl]-4-yl)propan-2-yl)amino)benzamido)propanoic Acid] | 472 | 284 | – | – |
| CC(C)COC[C@H](Cc1ccc(-c2ccc(C(F)(F)F)cc2)cc1)Nc1ccc(C(=O)NCCC(=O)O)cc1 [Compound 19-34, (S)-3-(4-((1-isobutoxy-3-(4′-(trifluoromethyl)-[1,1′-biphenyl]-4-yl)propan-2-yl)amino)benzamido)propanoic Acid] | 487 | 380 | – | – |

Now from value to compound:

| IC50 cAMP [1] [nM] | IC50 (glucagon receptor (GCGR)) [nM] | IC50 cAMP ([1]; inhibition of glucagon (EC50 concentration) induced cAMP production) [nM] | IC50 (glucagon receptor (GCGR); competition with I125-glucagon 0.0625 nM, membrane fractions of GCGR overexpressed CHO-K1 cells) [nM] | Structure (SMILES) |
| --- | --- | --- | --- | --- |
| 1403 | 201 | – | – | CC(C)(C)c1ccc(-c2nnc([C@H](Cc3ccc(-c4cc5ccccc5o4)cc3)Nc3ccc(C(=O)NCCC(=O)O)cc3)o2)cc1 [Compound 20-1, (S)-3-(4-((2-(4-(benzofuran-2-yl)phenyl)-1-(5-(4-(tert-butyl)phenyl)-1,3,4-oxadiazol-2-yl)ethyl)amino)benzamido)propanoic Acid] |
| 22191 | 974 | – | – | CCC(C)[C@H](Nc1ccc(C(=O)NCCC(=O)O)cc1)c1nnc(-c2oc3ccccc3c2C)o1 (stereo partly drawn) [Compound 20-2, 3-(4-(((1S)-2-methyl-1-(5-(3-methylbenzofuran-2-yl)-1,3,4-oxadiazol-2-yl)butyl)amino)benzamido)propanoic Acid] |
| 9163 | 801 | – | – | CCC(C)[C@H](Nc1ccc(C(=O)NCCC(=O)O)cc1)c1nnc(-c2ccc(C(C)(C)C)cc2)o1 (stereo partly drawn) [Compound 20-3, 3-(4-(((1S)-1-(5-(4-(tert-butyl)phenyl)-1,3,4-oxadiazol-2-yl)-2-methylbutyl)amino)benzamido)propanoic Acid] |
| 4853 | 1040 | – | – | CC(C)[C@H](Nc1ccc(C(=O)NCCC(=O)O)cc1)c1nnc(-c2ccc(C(C)(C)C)cc2)o1 [Compound 20-4, (S)-3-(4-((1-(5-(4-(tert-butyl)phenyl)-1,3,4-oxadiazol-2-yl)-2-methylpropyl)amino)benzamido)propanoic Acid] |
| >30000 | 4860 | – | – | Cc1cc(C)c(-c2ccc(C[C@H](Nc3ccc(C(=O)NCCC(=O)O)cc3)c3nnc(-c4ccc(C(C)(C)C)cc4)o3)cc2)c(C)c1 [Compound 20-5, (S)-3-(4-((1-(5-(4-(tert-butyl)phenyl)-1,3,4-oxadiazol-2-yl)-2-(2′,4′,6′-trimethyl-[1,1′-biphenyl]-4-yl)ethyl)amino)benzamido)propanoic Acid] |
| >30000 | 2680 | – | – | Cc1c(-c2nnc([C@H](Cc3ccc(-c4ccc(C(F)(F)F)cc4)cc3)Nc3ccc(C(=O)NCCC(=O)O)cc3)o2)oc2ccccc12 [Compound 20-6, (S)-3-(4-((1-(5-(3-methylbenzofuran-2-yl)-1,3,4-oxadiazol-2-yl)-2-(4′-(trifluoromethyl)-[1,1′-biphenyl]-4-yl)ethyl)amino)benzamido)propanoic Acid] |
| >30000 | > 30000 | – | – | Cc1c(-c2nnc([C@H](Cc3ccc(-c4ccc(C(F)(F)F)cc4)cc3)Nc3ccc(C(=O)NCCS(=O)(=O)O)cc3)o2)oc2ccccc12 [Compound 20-7, (S)-2-(4-((1-(5-(3-methylbenzofuran-2-yl)-1,3,4-oxadiazol-2-yl)-2-(4′-(trifluoromethyl)-[1,1′-biphenyl]-4-yl)ethyl)amino)benzamido)ethane-1-sulfonic Acid] |
| – | – | 170.4 | 803 | CCCC[C@@H](Cc1noc(-c2ccc(C(C)(C)C)cc2)n1)Nc1ccc(C(=O)NCCC(=O)O)cc1 [Compound 21-1, (S)-3-(4-((1-(5-(4-(tert-butyl)phenyl)-1,2,4-oxadiazol-3-yl)hexan-2-yl)amino)benzamido)propanoic Acid] |
